# Experimental data: paper PMC9729598 (Bioorganic Chemistry, 2022)
# Tested on: SARS-CoV-2 (wuhan-HU-1 variant)
# Assay type: cell-based
structure (smiles),measurement,value
"C=C(C)[C@@H]1CC[C@]2(C(=O)O)CC[C@]3(C)[C@H](CC[C@@H]4[C@@]5(C)CC[C@H](O)C(C)(C)[C@@H]5CC[C@]43C)[C@@H]12 [BA, Betulinic acid]",anti-SARS-CoV-2 activity,virtually inactive
